In ChEMBL document CHEMBL1201862, “PubChem BioAssay data set” (2004):
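All cell lines were grown in 96-well plates and treated with compound for 48 hours. At the GI50, growth is halved.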 Activity calls are given as the source filed them. Rule as the data show it: active = GI50 up to about 1.1 µM and inactive = higher. Non-standard residues stand in square brackets, D forms with d. Residues, ends and D or L forms follow the SMILES beside them. ξ: configuration not given here. *: point of attachment. NMeF = CN[C@@H](Cc1ccccc1)C(=O)O; NMeN = CN[C@@H](CC(N)=O)C(=O)O; NMeV = CN[C@H](C(=O)O)C(C)C; ξNMeV = CNC(C(=O)O)C(C)C; Boc = CC(C)(C)OC(=O)*; ξNMeA = CNC(C)C(=O)O; ξV = CC(C)C(N)C(=O)O

Legend:
Assay in all cases: NCI-60 cell line screen, 48 h
KM12 = tested on: KM12
HCT-15 = tested on: HCT-15
EKVX = tested on: EKVX
HOP-92 = tested on: HOP-92
DU-145 = tested on: DU-145
RXF 393 = tested on: RXF 393
OVCAR-4 = tested on: OVCAR-4
SK-OV-3 = tested on: SK-OV-3
MDA-N = tested on: MDA-N
Malme-3M = tested on: Malme-3M
SW-620 = tested on: SW-620
HOP-62 = tested on: HOP-62
SK-MEL-5 = tested on: SK-MEL-5
NCI-H460 = tested on: NCI-H460
COLO 205 = tested on: COLO 205
NCI-H23 = tested on: NCI-H23
NCI/ADR-RES = tested on: NCI/ADR-RES
OVCAR-5 = tested on: OVCAR-5
HCT-116 = tested on: HCT-116
NCI-H522 = tested on: NCI-H522

Structure (SMILES) | GI50 (KM12) | GI50 (HCT-15) [µM] | GI50 (EKVX) | GI50 (HOP-92) | GI50 (DU-145) | GI50 (RXF 393) | GI50 (OVCAR-4) | GI50 (SK-OV-3) | GI50 (MDA-N) | GI50 (Malme-3M) | GI50 (SW-620) | GI50 (HOP-62) | GI50 (SK-MEL-5) | GI50 (NCI-H460) | GI50 (COLO 205) | GI50 (NCI-H23) | GI50 (NCI/ADR-RES) | GI50 (OVCAR-5) | GI50 (HCT-116) | GI50 (NCI-H522)
COC(=O)[C@@H]1CN(C(C)=O)C(=O)N1 | > 100 µM (inactive) | > 100 | > 100 µM (inactive) | > 100 µM (inactive) | > 100 µM (inactive) | > 100 µM (inactive) | > 100 µM (inactive) | > 100 µM (inactive) | > 100 µM (inactive) | > 100 µM (inactive) | > 100 µM (inactive) | > 100 µM (inactive) | > 100 µM (inactive) | > 100 µM (inactive) | > 100 µM (inactive) | > 100 µM (inactive) | > 100 µM (inactive) | > 100 µM (inactive) | > 100 µM (inactive) | > 100 µM (inactive)
COc1cc2c(=O)cnoc2cc1O | > 100 µM (inactive) | > 100 | > 100 µM (inactive) | > 100 µM (inactive) | > 100 µM (inactive) | > 100 µM (inactive) | > 100 µM (inactive) | > 100 µM (inactive) | > 100 µM (inactive) | > 100 µM (inactive) | > 100 µM (inactive) | – | > 100 µM (inactive) | > 100 µM (inactive) | > 100 µM (inactive) | > 100 µM (inactive) | > 100 µM (inactive) | > 100 µM (inactive) | – | > 100 µM (inactive)
COC(=O)C(C)N(C)C(=O)[C@H](CC(N)=O)N(C)C(=O)[C@@H]1CCCN1C(=O)[C@H](C(C)C)N(C)C(=O)C(C(C)C)N(C)C(=O)[C@H](Cc1ccccc1)N(C)C(=O)C(NC(=O)OC(C)(C)C)C(C)C (stereo partly specified) (Boc-[ξV][NMeF][ξNMeV][NMeV]P[NMeN][ξNMeA]-OMe) | 11.2 µM (inactive) | 22 | > 50 µM (inactive) | 20.9 µM (inactive) | 28.8 µM (inactive) | 12 µM (inactive) | > 50 µM (inactive) | 46.2 µM (inactive) | 22.6 µM (inactive) | 17.8 µM (inactive) | 28.1 µM (inactive) | 11.5 µM (inactive) | 17.2 µM (inactive) | 37.2 µM (inactive) | 13.3 µM (inactive) | 17.6 µM (inactive) | > 50 µM (inactive) | > 50 µM (inactive) | 16.3 µM (inactive) | 17.5 µM (inactive)
O=c1oc2cc(/N=C/c3ccc4c(c3)OCO4)ccc2c2ccccc12 | > 100 µM (inactive) | > 100 | 3.66 µM (inactive) | > 100 µM (inactive) | > 100 µM (inactive) | 19.2 µM (inactive) | > 100 µM (inactive) | 34.1 µM (inactive) | > 100 µM (inactive) | > 100 µM (inactive) | 97.9 µM (inactive) | 36 µM (inactive) | 76.6 µM (inactive) | 39.8 µM (inactive) | 56.6 µM (inactive) | > 100 µM (inactive) | 77.1 µM (inactive) | > 100 µM (inactive) | 46.3 µM (inactive) | 56.8 µM (inactive)
Cc1[nH]c(-c2ccccc2)c(-c2ccc(Cl)cc2)c1C(=O)ONC(=O)c1ccccc1 | 7.24 µM (inactive) | 6.17 | 3.07 µM (inactive) | 1.77 µM (inactive) | 1.58 µM (inactive) | 2.12 µM (inactive) | 2.62 µM (inactive) | 10.5 µM (inactive) | 2 µM (inactive) | 10.2 µM (inactive) | 7.26 µM (inactive) | 2.07 µM (inactive) | 3.41 µM (inactive) | 2.11 µM (inactive) | 5.93 µM (inactive) | 4.02 µM (inactive) | 3.23 µM (inactive) | 5.07 µM (inactive) | 2.11 µM (inactive) | 2.1 µM (inactive)
C[C@H]1[C@H](C)CC[C@]2(C(=O)OC3OC(CO)C(O)C(O)C3O)CC[C@]3(C)C(=CC[C@@H]4[C@@]5(C)C[C@H]6OC(=O)c7cc(O)c(O)c(O)c7-c7c(cc(O)c(O)c7O)C(=O)O[C@@H]6C(CO)(CO)[C@@H]5CC[C@]43C)[C@H]12 (stereo partly specified) | 42.9 µM (inactive) | 24.8 | > 100 µM (inactive) | > 100 µM (inactive) | > 100 µM (inactive) | > 100 µM (inactive) | 27.1 µM (inactive) | > 95.5 µM (inactive) | 25.5 µM (inactive) | > 100 µM (inactive) | 37.6 µM (inactive) | > 100 µM (inactive) | 72.9 µM (inactive) | 45.1 µM (inactive) | > 100 µM (inactive) | > 100 µM (inactive) | > 100 µM (inactive) | > 95.9 µM (inactive) | 54.1 µM (inactive) | 16.6 µM (inactive)
Cc1cc(/N=C/c2ccc(N(C)C)cc2)n(-c2ccccc2)n1 | 16.7 µM (inactive) | 15.6 | 57.8 µM (inactive) | > 100 µM (inactive) | 35.6 µM (inactive) | 44.4 µM (inactive) | > 100 µM (inactive) | 20.2 µM (inactive) | 5.86 µM (inactive) | > 100 µM (inactive) | 34.9 µM (inactive) | 17 µM (inactive) | 40.2 µM (inactive) | 23.9 µM (inactive) | 24.8 µM (inactive) | 51.2 µM (inactive) | 24.7 µM (inactive) | > 100 µM (inactive) | 25.5 µM (inactive) | 30.1 µM (inactive)
OC(O)(C(F)(F)F)C(F)(F)F | > 100 µM (inactive) | > 100 | > 100 µM (inactive) | > 100 µM (inactive) | > 100 µM (inactive) | > 100 µM (inactive) | > 100 µM (inactive) | > 100 µM (inactive) | > 100 µM (inactive) | > 100 µM (inactive) | > 100 µM (inactive) | > 100 µM (inactive) | > 100 µM (inactive) | > 100 µM (inactive) | > 100 µM (inactive) | > 100 µM (inactive) | > 100 µM (inactive) | > 100 µM (inactive) | > 100 µM (inactive) | > 100 µM (inactive)
CC(=O)Nc1ccc(/C=C2/NC(=S)N(/C=C3\C(=O)Oc4ccccc4C3=O)C2=O)cc1 | 45.2 µM (inactive) | 32.7 | > 100 µM (inactive) | 63.2 µM (inactive) | 94 µM (inactive) | > 100 µM (inactive) | 51.1 µM (inactive) | 66.1 µM (inactive) | 52 µM (inactive) | > 100 µM (inactive) | 91 µM (inactive) | 48 µM (inactive) | 77.6 µM (inactive) | 35.6 µM (inactive) | 61.8 µM (inactive) | 67.3 µM (inactive) | 33.7 µM (inactive) | > 100 µM (inactive) | 52.7 µM (inactive) | 36.7 µM (inactive)
C/C=C/COc1cc(NC(=S)OC(C)C)ccc1Cl.C/C=C\COc1cc(NC(=S)OC(C)C)ccc1Cl | 17.4 µM (inactive) | 17.3 | 12.6 µM (inactive) | 11.8 µM (inactive) | 26.5 µM (inactive) | 14.9 µM (inactive) | 16.8 µM (inactive) | 21.9 µM (inactive) | 16.1 µM (inactive) | 15 µM (inactive) | 17.1 µM (inactive) | 20 µM (inactive) | 16.2 µM (inactive) | 16 µM (inactive) | 17.6 µM (inactive) | 16.9 µM (inactive) | 16 µM (inactive) | 19 µM (inactive) | 17.4 µM (inactive) | 14.1 µM (inactive)
CC(C)(C)c1cc(C(=O)C2Cc3ccccc3C(=O)O2)cc(C(C)(C)C)c1O (stereo unspecified) | 12 µM (inactive) | 12.4 | 12.3 µM (inactive) | 18.2 µM (inactive) | 14.8 µM (inactive) | 12.1 µM (inactive) | 11 µM (inactive) | 24 µM (inactive) | 8.61 µM (inactive) | 14.6 µM (inactive) | 10.3 µM (inactive) | 13.7 µM (inactive) | 12.6 µM (inactive) | 10.9 µM (inactive) | 17.6 µM (inactive) | 13.9 µM (inactive) | 13 µM (inactive) | 16.6 µM (inactive) | 10.2 µM (inactive) | 11.6 µM (inactive)
CC(=O)NC(Cc1c[nH]cn1)C(=O)N1CCCC1C(N)=O (stereo unspecified) | > 100 µM (inactive) | > 100 | > 100 µM (inactive) | > 100 µM (inactive) | > 100 µM (inactive) | > 100 µM (inactive) | > 100 µM (inactive) | > 100 µM (inactive) | > 100 µM (inactive) | > 100 µM (inactive) | > 100 µM (inactive) | > 100 µM (inactive) | > 100 µM (inactive) | > 100 µM (inactive) | > 100 µM (inactive) | > 100 µM (inactive) | > 100 µM (inactive) | > 100 µM (inactive) | > 100 µM (inactive) | > 100 µM (inactive)
N=C(N)c1ccc(/N=N\c2c(O)ccc3cc4c(/N=N\c5ccc(C(=N)N)cc5)c(O)ccc4cc23)cc1 | > 100 µM (inactive) | 56 | > 100 µM (inactive) | > 100 µM (inactive) | > 100 µM (inactive) | > 100 µM (inactive) | > 100 µM (inactive) | > 100 µM (inactive) | > 100 µM (inactive) | > 100 µM (inactive) | 87.1 µM (inactive) | 45.4 µM (inactive) | 51.6 µM (inactive) | 40.7 µM (inactive) | > 100 µM (inactive) | – | > 100 µM (inactive) | > 100 µM (inactive) | 50 µM (inactive) | > 100 µM (inactive)
O=C1C(/C=N/CCc2c[nH]c3ccccc23)C(C(F)(F)F)=NN1c1nc2ccccc2s1 (stereo unspecified) | – | 29.9 | 23.1 µM (inactive) | 16.4 µM (inactive) | 23.3 µM (inactive) | 15 µM (inactive) | 26.7 µM (inactive) | 25.3 µM (inactive) | 32.8 µM (inactive) | 29.6 µM (inactive) | 38.9 µM (inactive) | 20.4 µM (inactive) | 18.3 µM (inactive) | 24.1 µM (inactive) | 17.7 µM (inactive) | 30.8 µM (inactive) | 26.7 µM (inactive) | 29.2 µM (inactive) | 31.6 µM (inactive) | 19.5 µM (inactive)
